Laboratory results as given in US11110158B2, “Prostate-associated antigens and vaccine-based immunotherapy regimens” (Pfizer Inc., priority 2012, dated 2021).
Read-outs that look alike come from different tables or passages of the source.

Legend:
native PSMA protein = experiment: Sandwich ELISA, anti-PSMA antibody titers in serum of vaccinated Pasteur mice; type: in vivo, mouse
Description: The standard sandwich ELISA assay was done using an automated Biotek system. The plates were coated with 25 μl of native PSMA protein at a 1.0 μg/ml in PBS overnight, the plates were washed and blocked with 35 μl/well of 5% FBS 1×PBS-T 0.05% and incubated for 1 hour at RT on a shaker at 600 RPM. The blocking media was decanted and serial dilute vaccinated mouse serum with half log dilutions in 5% FBS 1×PBS-T 0.05% starting at 1:100 or 1:500 were made and 25μ samples of the diluted serum were added to each well of the 96 well plates and incubated for 1 hour at RT on a shaker at 600 RPM. The plates were washed 3 times with 75 ul/well in 1×PBS-T 0.05% using the Biotek ELx405, and 25 μl/well of 1:30,000 diluted anti-mouse IgG HRP (AbCam cat #ab20043) secondary antibody (diluted in 1×PBS-T 0.05%) was added to each well of the 96 well plates and incubated for 1 hour at RT on a shaker at 600 RPM. Plates were washed 5× with 75 ul/well in 1×PBS-T 0.05% using the Biotek EIx405. TMB Substrate was diluted at 1:10 and 25 μl was added to each well and incubated at RT for 30 minutes. The reaction was stopped by adding 12.5 μl/well of 1M H2SO4. Plates were read using the Spectramax Plus at 450 nm wavelength. Data were reported as titers and these could be reported as first positive (average and both values above 5% FBS PBS+3 time Standard Deviation) and/or as calculated titers at OD of 0.5 or 1.0. Serum from irrelevant vaccinated mice were used as negative controls.
Eight- to 10-week old Pasteur mice were immunized using PMED method with the various plasmid DNAs expressing shuffled PSMA modified antigens in a prime/boost/boost regimen, two weeks apart between each vaccination as described in Example 1F. Antigen specific T and B cell responses were measured 7 days after the last immunization in an interferon-gamma (IFNγ) ELISPOT assay and sandwich ELISA respectively.

[1] = set-up: species or system Indian Rhesus macaques; conditions: rhesus monkey, in vivo, 10 mg/kg
Description: Three animals per treatment group were injected with the anti-CTLA-4 antibody Tremelimumab at 10 mg/kg, either with a single intravenous injection into the saphenous vein or multiple 0.2 ml intradermal bilateral injections in the upper thigh in proximity to the inguinal draining lymph nodes. Blood samples were collected at 0, 1, 2, 4, 8, 12, 24, and 48 hrs post injection into 2.0 ml vaccutainer tubes containing lithium heparin as the anticoagulant. Plasma was collected from the supernatant in the vaccutainer tubes after centrifugation at 1500×g at 4° C. for 10 min. The levels of Tremelimumab in the plasma was measured by a quantitative ELISA assay according to the procedure provided below.
Tremelimumab Quantitative ELISA Assay Procedure. The 384-well high bind assay plates (VWR-Greiner Bio-One Cat #82051-264) were coated with 25 μl/well of CD-152 (CTLA-4; Ancell Immunology Research Products Cat #501-020) at 1.0 μg/ml in 100 mM carbonate-bicarbonate coating buffer and incubated overnight at 4° C. […] The colorimetric reaction was stopped by addition of 12.5 μL/well 1N Sulfuric acid and the absorbance then read at 450 nm. The amount of Tremelimumab in each sample was quantified using the standard curve with 0.27 to 67 ng/mL used as the quantitative range.

PSMA modified: membrane-bound polypeptide of amino acids 15-750 of human PSMA, SEQ ID NO: 9; tested as DNA construct
ELISA (OD = 1) Average (+/−SD) (native PSMA protein; Table 3, anti-PSMA antibody titer calculated at OD of 1, Pasteur mice): 1067 (518)
# of positive (native PSMA protein; Table 3, mice with anti-PSMA antibody response by ELISA / N): 4/4
ELISA (OD = 0.5) (native PSMA protein; Table 10, anti-PSMA antibody titer calculated at OD of 0.5, Pasteur mice): 1159 (802)
# of positive (native PSMA protein; Table 10, mice with anti-PSMA antibody response by ELISA / mice tested): 7/7

Tremelimumab: fully human IgG2 anti-CTLA-4 monoclonal antibody, CAS 745013-59-6, SEQ ID NOs:42 and 43
AUC0-24 [1]: 4900 µg·h/mL
AUC0-24 ([1]; iv): 7200 µg·h/mL
